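Each compound was tested at five concentrations against cells in 96-well plates for 48 hours. GI50 is the concentration that inhibits growth by half.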 Calls of active or inactive are those of the source. Rule as the data show it: active = GI50 up to about 1.1 µM and inactive = higher.
How the values were obtained:
Test in all cases: NCI tumour cell line growth inhibition, 48 h
786-0 = test system: 786-0
A549 = test system: A549
ACHN = test system: ACHN
BT-549 = test system: BT-549
CAKI-1 = test system: CAKI-1
CCRF-CEM = test system: CCRF-CEM
COLO 205 = test system: COLO 205
DU-145 = test system: DU-145
EKVX = test system: EKVX
HCC 2998 = test system: HCC 2998
HCT-116 = test system: HCT-116
HCT-15 = test system: HCT-15
HL-60 = test system: HL-60
HOP-62 = test system: HOP-62
HOP-92 = test system: HOP-92
HT-29 = test system: HT-29
Hs-578T = test system: Hs-578T
IGROV-1 = test system: IGROV-1
K562 = test system: K562
KM12 = test system: KM12
LOX IMVI = test system: LOX IMVI
M14 = test system: M14
MCF7 = test system: MCF7
MDA-MB-231 = test system: MDA-MB-231
MDA-MB-435 = test system: MDA-MB-435
MDA-N = test system: MDA-N
NCI-H226 = test system: NCI-H226
NCI-H23 = test system: NCI-H23
NCI-H460 = test system: NCI-H460
NCI-H522 = test system: NCI-H522
NCI/ADR-RES = test system: NCI/ADR-RES
OVCAR-3 = test system: OVCAR-3
OVCAR-4 = test system: OVCAR-4
OVCAR-5 = test system: OVCAR-5
OVCAR-8 = test system: OVCAR-8
PC-3 = test system: PC-3
RPMI-8226 = test system: RPMI-8226
RXF 393 = test system: RXF 393
SF-268 = test system: SF-268
SF-295 = test system: SF-295
SF-539 = test system: SF-539
SK-MEL-28 = test system: SK-MEL-28
SK-MEL-2 = test system: SK-MEL-2
SK-MEL-5 = test system: SK-MEL-5
SK-OV-3 = test system: SK-OV-3
SN12C = test system: SN12C
SNB-19 = test system: SNB-19
SNB-75 = test system: SNB-75
SR = test system: SR
SW-620 = test system: SW-620
T47D = test system: T47D
TK-10 = test system: TK-10
U-251 = test system: U-251
UACC-257 = test system: UACC-257
UACC-62 = test system: UACC-62
UO-31 = test system: UO-31
MOLT-4 = test system: MOLT-4
Malme-3M = test system: Malme-3M

For `O=C1OC(c2ccc(Cl)cc2)=N/C1=C\c1ccccc1`, the GI50 (786-0) was > 100 µM (inactive), the GI50 (A549) was > 100 µM (inactive) and the GI50 (ACHN) was > 100 µM (inactive). For the same compound, the GI50 (BT-549) was > 100 µM (inactive), the GI50 (CAKI-1) was > 100 µM (inactive) and the GI50 (CCRF-CEM) was 39.5 µM (inactive). For the same compound, the GI50 (COLO 205) was > 100 µM (inactive), the GI50 (DU-145) was > 100 µM (inactive) and the GI50 (EKVX) was > 100 µM (inactive). For the same compound, the GI50 (HCC 2998) was > 100 µM (inactive), the GI50 (HCT-116) was > 100 µM (inactive) and the GI50 (HCT-15) was over 100 µM. For the same compound, the GI50 (HL-60) was 62.7 µM (inactive), the GI50 (HOP-62) was > 100 µM (inactive) and the GI50 (HOP-92) was > 100 µM (inactive). The GI50 (HT-29) was > 100 µM (inactive), the GI50 (Hs-578T) was > 100 µM (inactive) and the GI50 (IGROV-1) was > 100 µM (inactive). The GI50 (K562) was > 100 µM (inactive), the GI50 (KM12) was > 100 µM (inactive) and the GI50 (LOX IMVI) was > 100 µM (inactive). For the same compound, the GI50 (M14) was > 100 µM (inactive), the GI50 (MCF7) was > 100 µM (inactive) and the GI50 (MDA-MB-231) was > 100 µM (inactive). For the same compound, the GI50 (MDA-MB-435) was > 100 µM (inactive), the GI50 (MDA-N) was > 100 µM (inactive) and the GI50 (NCI-H226) was > 100 µM (inactive). The GI50 (NCI-H23) was > 100 µM (inactive), the GI50 (NCI-H460) was > 100 µM (inactive) and the GI50 (NCI-H522) was 49.2 µM (inactive). The GI50 (NCI/ADR-RES) was 78 µM (inactive), the GI50 (OVCAR-3) was 42.3 µM (inactive) and the GI50 (OVCAR-4) was > 100 µM (inactive). For the same compound, the GI50 (OVCAR-5) was > 100 µM (inactive), the GI50 (OVCAR-8) was > 100 µM (inactive) and the GI50 (PC-3) was > 100 µM (inactive). The GI50 (RPMI-8226) was 46.6 µM (inactive), the GI50 (RXF 393) was > 100 µM (inactive) and the GI50 (SF-268) was > 100 µM (inactive). For the same compound, the GI50 (SF-295) was > 100 µM (inactive), the GI50 (SF-539) was > 100 µM (inactive) and the GI50 (SK-MEL-28) was > 100 µM (inactive). For the same compound, the GI50 (SK-MEL-2) was > 100 µM (inactive), the GI50 (SK-MEL-5) was > 100 µM (inactive) and the GI50 (SK-OV-3) was > 100 µM (inactive). For the same compound, the GI50 (SN12C) was > 100 µM (inactive), the GI50 (SNB-19) was > 100 µM (inactive) and the GI50 (SNB-75) was > 100 µM (inactive). The GI50 (SR) was > 100 µM (inactive), the GI50 (SW-620) was > 100 µM (inactive) and the GI50 (T47D) was > 100 µM (inactive). For the same compound, the GI50 (TK-10) was > 100 µM (inactive), the GI50 (U-251) was > 100 µM (inactive) and the GI50 (UACC-257) was > 100 µM (inactive). The GI50 (UACC-62) was > 100 µM (inactive) and the GI50 (UO-31) was > 100 µM (inactive).

`Cc1cccc(Nc2nn3c(=O)c4c5c(sc4nc3s2)CCCC5)c1` was tested, and the GI50 (786-0) was 45.9 µM (inactive), the GI50 (A549) was 14.8 µM (inactive) and the GI50 (ACHN) was 7.71 µM (inactive). For the same compound, the GI50 (BT-549) was 25.8 µM (inactive), the GI50 (CAKI-1) was 9.93 µM (inactive) and the GI50 (CCRF-CEM) was 56.5 µM (inactive). For the same compound, the GI50 (COLO 205) was 3.69 µM (inactive), the GI50 (DU-145) was > 100 µM (inactive) and the GI50 (HCT-116) was 22.9 µM (inactive). The GI50 (HCT-15) was 6.41 µM, the GI50 (HL-60) was 23.4 µM (inactive) and the GI50 (HOP-62) was 28.4 µM (inactive). The GI50 (HOP-92) was 26.4 µM (inactive), the GI50 (HT-29) was 10.4 µM (inactive) and the GI50 (Hs-578T) was 6.04 µM (inactive). The GI50 (IGROV-1) was 43.4 µM (inactive), the GI50 (K562) was 5.09 µM (inactive) and the GI50 (KM12) was 16.1 µM (inactive). The GI50 (LOX IMVI) was 3.33 µM (inactive), the GI50 (M14) was 3.89 µM (inactive) and the GI50 (MCF7) was 6.17 µM (inactive). The GI50 (MDA-MB-231) was 8.09 µM (inactive), the GI50 (MDA-MB-435) was 7.41 µM (inactive) and the GI50 (MDA-N) was 15 µM (inactive). For the same compound, the GI50 (MOLT-4) was 48.4 µM (inactive), the GI50 (Malme-3M) was 3.15 µM (inactive) and the GI50 (NCI-H226) was > 100 µM (inactive). The GI50 (NCI-H23) was 14 µM (inactive), the GI50 (NCI-H460) was 6.24 µM (inactive) and the GI50 (NCI-H522) was 4.35 µM (inactive). The GI50 (NCI/ADR-RES) was 11.1 µM (inactive), the GI50 (OVCAR-3) was 25.9 µM (inactive) and the GI50 (OVCAR-4) was 16 µM (inactive). For the same compound, the GI50 (OVCAR-5) was 87.7 µM (inactive), the GI50 (OVCAR-8) was 12.4 µM (inactive) and the GI50 (PC-3) was 38.7 µM (inactive). The GI50 (RXF 393) was 20.4 µM (inactive), the GI50 (SF-268) was 3.36 µM (inactive) and the GI50 (SF-295) was 3.08 µM (inactive). The GI50 (SF-539) was > 100 µM (inactive), the GI50 (SK-MEL-28) was > 100 µM (inactive) and the GI50 (SK-MEL-2) was > 100 µM (inactive). The GI50 (SK-MEL-5) was 2.4 µM (inactive), the GI50 (SK-OV-3) was 45.8 µM (inactive) and the GI50 (SN12C) was 66.7 µM (inactive). For the same compound, the GI50 (SNB-19) was > 100 µM (inactive), the GI50 (SNB-75) was 23.2 µM (inactive) and the GI50 (SR) was 25.4 µM (inactive). For the same compound, the GI50 (SW-620) was 91.2 µM (inactive), the GI50 (T47D) was 9.82 µM (inactive) and the GI50 (TK-10) was 37.7 µM (inactive). The GI50 (U-251) was 46.2 µM (inactive), the GI50 (UACC-257) was 21.5 µM (inactive) and the GI50 (UACC-62) was 0.647 µM (active). The GI50 (UO-31) was > 100 µM (inactive).
